Assay results: patent publication US10266549B2, “ULK1 inhibitors and methods using same” (SALK INSTITUTE FOR BIOLOGICAL STUDIES, priority 2014, dated 2019)

How the values were obtained:
[1] = test system: murine Kras p53 lung carcinoma cells; assay: AnnexinV apoptosis in Kras p53 lung carcinoma cells; assay type: cell-based; details: selectively in the nutrient-starved state
Protocol: For flow cytometry analysis, cells were collected at the appropriate time point, washed once in PBS, trypsinized and pelleted. For Annexin V staining, cells were washed in 1× Annexin V buffer and treated as described by the Annexin V staining protocol (BD Pharmingen, San Diego, Calif.). Briefly, cells were resuspended in Annexin V buffer to a concentration of one million per mL, 100,000 cells were then stained with 5 μL of phycoerythrin (PE)-conjugated Annexin V antibody (BD Pharmingen, San Diego, Calif.) and 5 μL of 7-amino-actinomycin D (7AAD) and then incubated at room temperature for 15 minutes. 400 μL of Annexin V buffer was then added to each sample with gentle mixing. Stained cells were analyzed using a FACScan flow cytometer (Becton Dickinson, San Jose, Calif.). Flow cytometry data was analyzed using FlowJo 8.6 software (Tree Star Inc., Ashland, Oreg.).
There has been great interest in the role of autophagy in the survival of tumor cells, particular tumor cells faced with metabolic stress from chemotherapies or targeted therapeutics. We next examined whether compound 14 would promote apoptosis in tumor cells similar to the MEFs, selectively under conditions in which autophagy is actively engaged. […]

[2] = target: WT ULK2 (Homo sapiens (Human), UniProt Q8IYT8); assay: in vitro kinase assay, WT ULK2, MBP substrate, radiolabeled ATP; assay type: biochemical; details: 10-μM MBP, 30-μM γ-32P-ATP; triplicate, ten-dose, 3-fold serial dilution from 1 μM
Protocol: WT ULK1 (left) and WT ULK2 (right) were assayed using 10-μM MBP in the presence of 30-μM radiolabeled γ-^32P-ATP.
To further examine how ULK1 regulates autophagy, we sought to identify small molecule ATP competitive kinase inhibitors of ULK1. Screening a library of chemical compounds for inhibitors of ULK1 kinase activity in vitro, we identified a lead compound that was further elaborated through a medicinal chemistry effort to produce compound 14. […] To further characterize the ability of compound 14 and related derivatives to inhibit ULK1 in cells, we tested the ability of these compounds to inhibit the phosphorylation of Vps34 Ser249 when epitope-tagged Vps34 was co-expressed in HEK293T cells with a wild-type ULK1 cDNA. Screening 40 compounds, we found compound 14 inhibited P-Vps34 on overexpressed Vps34 when used at ˜5 μM (FIG. 7B). We next examined the sensitivity of phosphorylation of Vps34 Serine 249 versus Beclin Serine 15 to two structurally distinct ULK1 inhibitors, when cDNAs bearing each were introduced into HEK293T cells. […] (FIG. 11A).

[3] = test system: MEFs; assay: AnnexinV apoptosis analysis in nutrient-deprived MEFs; assay type: cell-based, mouse
Protocol: A549 cells (ATCC #CCL185) and MEFs were seeded at a concentration of 2.5×10^5 cells/mL (i.e., 750,000 cells per 6 cm dish), grown overnight (18 hrs) and treated as indicted in the figure legends. Unless otherwise indicated, “starvation” is EBSS and “control” is DMEM with full serum for indicated timepoints. Samples for western blot were washed once in 1× ice cold PBS and lysed in boiling SDS lysis buffer (10 mM Tris […], 100 mM NaCl, 1% SDS). After trituration, lysates were equilibrated for protein levels using the BCA method (Pierce) and resolved on 8 to 15% SDS-PAGE gels, depending on the size of the protein. PVDF membranes were probed with indicated antibodies overnight according to the manufacturers instructions.
For flow cytometry analysis, cells were collected at the appropriate time point, washed once in PBS, trypsinized and pelleted. For Annexin V staining, cells were washed in 1× Annexin V buffer and treated as described by the Annexin V staining protocol (BD Pharmingen, San Diego, Calif.). […] Stained cells were analyzed using a FACScan flow cytometer (Becton Dickinson, San Jose, Calif.). Flow cytometry data was analyzed using FlowJo 8.6 software (Tree Star Inc., Ashland, Oreg.). […]

[4] = test system: ULK1; assay: phosphorylation of ULK1 substrates (Vps34 Ser249, Beclin Ser15) in HEK293T cells co-expressing wild-type ULK1; assay type: cell-based, human
Protocol: At 24-hr post-transfection, cells were treated with a panel of putative ULK1 competitive inhibitors in a dose-response manner (1, 10, 50 μM). Cellular lysates were isolated after 1 hr of treatment and immunoblotted with the indicated antibodies. Representative results for compound 14 are shown.
FIG. 7C: HEK293T cells were transfected with WT or KI ULK1 and WT Vps34 (left) or WT Flag-tagged Beclin1 (WT Beclin1; right). At 24-hr post-transfection, cells were treated with compound 14 (10 μM) or DMSO. Cellular lysates were isolated after 1 hr of treatment and immunoblotted with the indicated antibodies.
For transient expression in HEK293T cells were transfected with 2 ug each DNA plasmid per 6 cm dish using Lipofectamine 2000 (Invitrogen) following the manufacturer's protocol. Cells were harvested 24 hours after transfection and rinsed once with ice-cold PBS and lysed in boiling SDS lysis buffer (10 mM Tris pH7.5, 100 mM NaCl, 1% SDS). After trituration, lysates were equilibrated for protein levels using the BCA method (Pierce) and resolved on 8 to 15% SDS-PAGE Phos-Tag™ gels according to the manufacturer's instructions. Briefly, Phos-Tag™ AAL-107 (HARD #304-93521) was added to SDS-PAGE acryamide mixture at a final concentration of 50 μM along with MnCl2 at a final concentration of 100 μM. […]

Sequence of WT ULK2 (Q8IYT8 whole entry): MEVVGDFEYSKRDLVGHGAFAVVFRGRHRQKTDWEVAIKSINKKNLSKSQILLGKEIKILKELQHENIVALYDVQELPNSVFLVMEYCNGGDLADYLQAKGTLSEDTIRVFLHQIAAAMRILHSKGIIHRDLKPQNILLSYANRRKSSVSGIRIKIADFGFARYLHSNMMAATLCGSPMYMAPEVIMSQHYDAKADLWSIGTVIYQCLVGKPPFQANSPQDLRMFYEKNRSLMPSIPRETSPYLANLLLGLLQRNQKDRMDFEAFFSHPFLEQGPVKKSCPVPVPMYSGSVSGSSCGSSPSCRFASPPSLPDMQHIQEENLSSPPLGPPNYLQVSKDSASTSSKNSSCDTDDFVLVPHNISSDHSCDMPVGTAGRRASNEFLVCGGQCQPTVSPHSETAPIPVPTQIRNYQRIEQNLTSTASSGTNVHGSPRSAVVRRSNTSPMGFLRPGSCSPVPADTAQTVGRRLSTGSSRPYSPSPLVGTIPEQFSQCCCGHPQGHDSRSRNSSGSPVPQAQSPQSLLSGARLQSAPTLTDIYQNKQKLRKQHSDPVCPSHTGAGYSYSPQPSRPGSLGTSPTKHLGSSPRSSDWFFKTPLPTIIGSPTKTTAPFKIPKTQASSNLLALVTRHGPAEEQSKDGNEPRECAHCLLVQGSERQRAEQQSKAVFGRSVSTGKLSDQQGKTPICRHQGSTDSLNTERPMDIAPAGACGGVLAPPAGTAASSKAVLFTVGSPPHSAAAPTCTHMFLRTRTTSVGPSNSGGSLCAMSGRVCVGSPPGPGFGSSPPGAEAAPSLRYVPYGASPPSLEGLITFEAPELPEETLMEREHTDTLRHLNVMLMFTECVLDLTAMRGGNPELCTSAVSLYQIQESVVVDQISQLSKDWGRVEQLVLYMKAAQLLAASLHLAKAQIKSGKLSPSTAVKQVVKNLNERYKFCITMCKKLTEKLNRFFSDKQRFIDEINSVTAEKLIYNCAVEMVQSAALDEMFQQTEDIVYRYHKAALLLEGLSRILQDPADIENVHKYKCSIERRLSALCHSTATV

## CNC(=O)c1ccccc1Nc1nc(Nc2cc(OC)c(OC)c(OC)c2)ncc1Br [compound 14, 2-(5-bromo-2-(3,4,5-trimethoxyphenylamino)pyrimidin-4-ylamino)-N-methylbenzamide]
[1]
  apoptosis (AnnexinV+ cells): promoted apoptosis
[2]
  IC50: 0.711 µM
[3]; MEFs, 24 h after amino-acid deprivation
  AnnexinV positive cells: 50%
[3]; glucose-deprived MEFs
  cell death: promoted cell death
[4]; 10 μM, 1 hr
  inhibition of Beclin Ser15 and Vps34 Ser249 phosphorylation: inhibited Beclin Ser15 and Vps34 Ser249 to comparable extents
[4]; WT ULK1 + Flag-Vps34, 1 hr treatment
  concentration inhibiting P-Vps34 on overexpressed Vps34: ~5 µM
